Molecular target: T1, hCRTH2 (Homo sapiens, UniProt Q9Y5Y4)
T1 construct: expressed in transfected cells; host or cells: HEK (human embryonic kidney) cells expressing hCRTH2
T1 sequence (Q9Y5Y4 1-395): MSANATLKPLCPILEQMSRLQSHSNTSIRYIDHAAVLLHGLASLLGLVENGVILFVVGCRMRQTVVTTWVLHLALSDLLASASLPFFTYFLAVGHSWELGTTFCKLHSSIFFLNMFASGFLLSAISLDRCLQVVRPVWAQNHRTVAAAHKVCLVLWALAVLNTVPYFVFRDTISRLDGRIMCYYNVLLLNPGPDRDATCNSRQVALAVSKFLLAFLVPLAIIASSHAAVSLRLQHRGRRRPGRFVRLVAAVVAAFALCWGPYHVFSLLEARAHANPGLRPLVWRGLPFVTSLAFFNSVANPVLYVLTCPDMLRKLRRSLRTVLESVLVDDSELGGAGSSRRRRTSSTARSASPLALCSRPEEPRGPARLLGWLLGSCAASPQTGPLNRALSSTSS
Assay: Radioligand Binding Assay A ([3H]PGD2 filtration binding, HEK-hCRTH2 membranes)
Conditions: Table A, rated A-D
Protocol: Radioligand binding assays were performed at room temperature in 50 mM Tris-HCl pH 7.4, 1 mM EDTA containing 2 mM MnCl2 and 3.0 nM [^3H]PGD2 (New England Nuclear, Boston, Mass.) (171 Ci mmol^−1), in a final volume of 0.2 ml. Competing ligands were diluted in dimethylsulfoxide (Me2SO) that was kept constant at 1% (v/v) of the final incubation volume. The reaction was initiated by the addition of 8-20 μg of membrane protein prepared from a human embryonic kidney (HEK)-hCRTH2 cell line. Total and non-specific binding were determined in the absence and the presence of 10 μM PGD2, respectively. Under these conditions, specific binding (total minus non-specific) of the radioligand to the receptor reached equilibrium within 50 min and was stable up to 180 min. The reaction was routinely conducted for 60 min at room temperature and terminated by rapid filtration through prewetted (0.3% polyethyleneimine) 96-well printed Filtermate™ (Wallac) using a Tomtec® harvester (Hamden, Conn.). After washing with cold buffer, the filter was dried for 2 minutes in microwave, and Meltilex Scintillator sheet (Wallac) was melted on for 2 min. The radioactivity was measured with Betaplate model 1205 (Wallac).

Compound	Ki [nM]
O=C(O)CCCCc1cc2cc(C(=O)N3CC[C@H](c4ccccc4)C3)ccc2nc1-c1ccccc1 [Compound 1J, 2-phenyl-6-[(3(R)-phenyl-1-pyrrolidinyl)carbonyl]-3-quinolinepentanoic acid]	2.1 to 20
CCCCCCCCCNC(=O)c1ccc2nc(-c3ccccc3)c(CCCCC(=O)O)cc2c1 [Compound 1AC, 6-[(nonylamino)carbonyl]-2-phenyl-3-quinolinepentanoic acid]	2.1 to 20
C[C@H](NC(=O)c1cnc2nc(-c3ccc(F)cc3)c(CCCCC(=O)O)cc2c1)c1ccc(F)cc1 [Compound 6K, 2-(4-fluorophenyl)-6-[[[1(S)-(4-fluorophenyl)ethyl]amino]carbonyl]-1,8-naphthyridine-3-pentanoic acid]	20.1 to 200
O=C(O)CCCCc1cc2cc(C(=O)N[C@H](c3ccc(Cl)cc3)C(F)(F)F)ccc2nc1-c1ccccc1 [Compound 1AF, 6-[[[1(R)-(4-chlorophenyl)-2,2,2-trifluoroethyl]amino]carbonyl]-2-phenyl-3-quinolinepentanoic acid]	2.1 to 20
O=C(O)CCCCc1cc2cc(C(=O)N[C@H]3CCc4ccc(F)cc43)cnc2nc1-c1ccc(F)cc1 [Compound 6M, 6-[[(6-fluoro-2,3-dihydro-1H-inden-1(S)-yl)amino]carbonyl]-2-(4-fluorophenyl)-1,8-naphthyridine-3-pentanoic acid]	20.1 to 200
O=C(O)CCCCc1nc2cc(C(=O)N3CC(c4ccccc4)C3)ccc2cc1-c1ccccc1 [Compound 3L, 3-phenyl-7-[(3-phenyl-1-azetidinyl)carbonyl]-2-quinolinepentanoic acid]	0.1 to 2
O=C(O)CCCCc1cc2cc(C(=O)N[C@@H]3CCc4ccccc43)ccc2nc1-c1ccccc1 [Compound 1M, 6-[[(2,3-dihydro-1H-inden-1(R)-yl)amino]carbonyl]-2-phenyl-3-quinolinepentanoic acid]	2.1 to 20
O=C(O)CCCCc1cc2cc(C(=O)N[C@@H]3CCc4ccc(F)cc43)ccc2nc1-c1ccc(F)cc1 [Compound 5F, 6-[[(6-fluoro-2,3-dihydro-1H-inden-1(R)-yl)amino]carbonyl]-2-(4-fluorophenyl)-3-quinolinepentanoic acid]	2.1 to 20
O=C(O)CCCCc1cc2cc(C(=O)NC(c3ccccc3)c3ccccc3)ccc2nc1-c1ccc(F)cc1 [Compound 5AA, 5-(6-(benzhydrylcarbamoyl)-2-(4-fluorophenyl)quinolin-3-yl)pentanoic acid]	2.1 to 20
O=C(O)CCCCc1cc2cc(C(=O)N[C@@H]3CCCc4cc(Cl)ccc43)ccc2nc1-c1ccc(F)cc1 [Compound 5P, 6-[[(6-chloro-1,2,3,4-tetrahydro-1(R)-naphthalenyl)amino]carbonyl]-2-(4-fluorophenyl)-3-quinolinepentanoic acid]	2.1 to 20
O=C(O)CCCCc1cc2cc(C(=O)N[C@@H]3CCCc4ccc(F)cc43)ccc2nc1-c1ccc(F)cc1 [Compound 5H, 2-(4-fluorophenyl)-6-[[(7-fluoro-1,2,3,4-tetrahydro-1(R)-naphthalenyl)amino]carbonyl]-3-quinolinepentanoic acid]	2.1 to 20
O=C(O)CCCCc1cc2cc(C(=O)N[C@@H]3CCc4ccc(F)cc43)cnc2nc1-c1ccc(F)cc1 [Compound 6F, 6-[[(6-fluoro-2,3-dihydro-1H-inden-1(R)-yl)amino]carbonyl]-2-(4-fluorophenyl)-1,8-naphthyridine-3-pentanoic acid]	20.1 to 200
O=C(O)CCCCc1cc2cc(C(=O)Nc3cc4ccccc4[nH]3)ccc2nc1-c1ccccc1 [Compound 1AB, 6-[(1H-indol-2-ylamino)carbonyl]-2-phenyl-3-quinolinepentanoic acid]	2.1 to 20
CN(Cc1ccc(C(F)(F)F)cc1)C(=O)c1ccc2nc(-c3ccc(F)cc3)c(CCCCC(=O)O)cc2c1 [Compound 5V, 2-(4-fluorophenyl)-6-[[methyl[[4-(trifluoromethyl)phenyl]methyl]amino]carbonyl]-3-quinolinepentanoic acid]	2.1 to 20
O=C(O)CCCCc1cc2cc(C(=O)N[C@H]3CCCc4ccccc43)ccc2nc1-c1ccccc1 [Compound 1P, 2-phenyl-6-[[(1,2,3,4-tetrahydro-1(S)-naphthalenyl)amino]carbonyl]-3-quinolinepentanoic acid]	2.1 to 20
C[C@@H](NC(=O)c1cnc2nc(-c3ccc(F)cc3)c(CCCCC(=O)O)cc2c1)c1ccc(Cl)cc1 [Compound 6, 6-[[[1(R)-(4-chlorophenyl)ethyl]amino]carbonyl]-2-(4-fluorophenyl)-1,8-naphthyridine-3-pentanoic acid]	20.1 to 200
O=C(O)CCCCc1cc2cc(C(=O)N[C@H]3CCc4ccc(F)cc43)ccc2nc1-c1ccc(F)cc1 [Compound 5L, 6-[[(6-fluoro-2,3-dihydro-1H-inden-1(S)-yl)amino]carbonyl]-2-(4-fluorophenyl)-3-quinolinepentanoic acid]	2.1 to 20
CN(Cc1ccc(Cl)cc1)C(=O)c1ccc2nc(-c3ccc(F)cc3)c(CCCCC(=O)O)cc2c1 [Compound 5U, 6-[[[(4-chlorophenyl)methyl]methylamino]carbonyl]-2-(4-fluorophenyl)-3-quinolinepentanoic acid]	2.1 to 20
C[C@H](NC(=O)c1ccc2nc(-c3ccc(F)cc3)c(CCCCC(=O)O)cc2c1)c1ccc(Cl)cc1 [Compound 5i]	2.1 to 20
O=C(O)CCCCc1cc2cc(C(=O)N[C@H]3CCCc4cc(Cl)ccc43)cnc2nc1-c1ccc(F)cc1 [Compound 6N, 6-[[(6-chloro-1,2,3,4-tetrahydro-1(S)-naphthalenyl)amino]carbonyl]-2-(4-fluorophenyl)-1,8-naphthyridine-3-pentanoic acid]	20.1 to 200
O=C(O)CCCCc1cc2cc(C(=O)N[C@@H](c3ccccc3)C(F)(F)F)ccc2nc1-c1ccccc1 [Compound 1G, 2-phenyl-6-[[(2,2,2-trifluoro-1(S)-phenylethyl)amino]carbonyl]-3-quinolinepentanoic acid]	2.1 to 20
COc1ccc([C@@H](NC(=O)c2cnc3nc(-c4ccc(F)cc4)c(CCCCC(=O)O)cc3c2)C(F)(F)F)cc1 [Compound 6i, 2-(4-fluorophenyl)-6-[[[2,2,2-trifluoro-1(R)-(4-methoxyphenyl)ethyl]amino]carbonyl]-1,8-naphthyridine-3-pentanoic acid]	20.1 to 200
O=C(O)CCCCc1cc2cc(C(=O)N[C@@H]3CCCc4ccccc43)ccc2nc1-c1ccccc1 [Compound 1o, 2-phenyl-6-[[(1,2,3,4-tetrahydro-1(R)-naphthalenyl)amino]carbonyl]-3-quinolinepentanoic acid]	2.1 to 20
O=C(O)CCCCc1nc2cc(C(=O)N3CC[C@@H](c4ccccc4)C3)ccc2cc1-c1ccccc1 [Compound 3H, 3-phenyl-7-[(3(S)-phenyl-1-pyrrolidinyl)carbonyl]-2-quinolinepentanoic acid]	2.1 to 20
O=C(O)CCCCc1cc2cc(C(=O)NCCCN3CCCC3=O)ccc2nc1-c1ccccc1 [Compound 1AA, 6-[[[3-(2-oxo-1-pyrrolidinyl)propyl]amino]carbonyl]-2-phenyl-3-quinolinepentanoic acid]	2.1 to 20
O=C(O)CCCCc1cc2cc(C(=O)N[C@H]3CCc4cc(Cl)ccc43)cnc2nc1-c1ccc(F)cc1 [Compound 6L, 6-[[(5-chloro-2,3-dihydro-1H-inden-1(S)-yl)amino]carbonyl]-2-(4-fluorophenyl)-1,8-naphthyridine-3-pentanoic acid]	2.1 to 20
O=C(O)CCCCc1nc2cc(C(=O)N3CCC(c4ccccc4)CC3)ccc2cc1-c1ccccc1 [Compound 3E, 3-phenyl-7-[(4-phenyl-1-piperidinyl)carbonyl]-2-quinolinepentanoic acid]	2.1 to 20
O=C(O)CCCCc1cc2cc(C(=O)N[C@H]3CCCc4ccccc43)ccc2nc1-c1ccc(F)cc1 [Compound 5M, 2-(4-fluorophenyl)-6-[[(1,2,3,4-tetrahydro-1(S)-naphthalenyl)amino]carbonyl]-3-quinolinepentanoic acid]	2.1 to 20
O=C(O)CCCCc1cc2cc(C(=O)N[C@@H]3CCCc4ccccc43)ccc2nc1-c1ccc(F)cc1 [Compound 5G, 2-(4-fluorophenyl)-6-[[(1,2,3,4-tetrahydro-1(R)-naphthalenyl)amino]carbonyl]-3-quinolinepentanoic acid]	2.1 to 20

Same assay, conditions: values in text

Compound	Ki [nM]
O=C(O)CCCCc1cc2cc(C(=O)N[C@@H]3CCc4ccccc43)ccc2nc1-c1ccccc1 [Compound 1M, 6-[[(2,3-dihydro-1H-inden-1(R)-yl)amino]carbonyl]-2-phenyl-3-quinolinepentanoic acid]	3.8
O=C(O)CCCCc1cc2cc(C(=O)N[C@@H]3CCc4ccc(F)cc43)ccc2nc1-c1ccc(F)cc1 [Compound 5F, 6-[[(6-fluoro-2,3-dihydro-1H-inden-1(R)-yl)amino]carbonyl]-2-(4-fluorophenyl)-3-quinolinepentanoic acid]	13.6
O=C(O)CCCCc1nc2cc(C(=O)N3CC[C@@H](c4ccccc4)C3)ccc2cc1-c1ccccc1 [Compound 3H, 3-phenyl-7-[(3(S)-phenyl-1-pyrrolidinyl)carbonyl]-2-quinolinepentanoic acid]	2.7
O=C(O)CCCCc1cc2cc(C(=O)N[C@@H]3CCCc4ccccc43)ccc2nc1-c1ccc(F)cc1 [Compound 5G, 2-(4-fluorophenyl)-6-[[(1,2,3,4-tetrahydro-1(R)-naphthalenyl)amino]carbonyl]-3-quinolinepentanoic acid]	2.6
